Results as given in ChEMBL document CHEMBL1130768, “DNA cleavage by 7-methylbenzopentathiepin: a simple analog of the antitumor antibiotic varacin” (1998).
In brackets after ≈: the same amount, converted by molar mass. Activity calls are given as the source filed them. The rule behind the calls is not given here.

Columns and labels:
[1] = test system: Candida albicans; assay: Antifungal activity against candida albicans was determined; Active; type: functional, organism-based
[2] = test system: HCT-116; assay: Cytotoxicity against a human colon cancer cell line (HCT116 cells) was reported; type: functional

SMILES: COc1cc(CCN)c2c(c1OC)SSSSS2 [VARACIN]
- Activity [1]: Active
- IC90 [2]: 0.05 µg/mL (≈ 0.147 µM)
